The values that follow come from US20260232763A1 (Kadmon Corporation, LLC, priority 2023, published 2026).

The conditions of series [1]: cited from earlier work.
Series [2] can be described thus: metabolite exposure in clinical trials of the belumosudil development program. Format: in vivo, human.
Series [3] can be described thus: clinical. The settings on record: human, in vivo. How it is done:
(§1) On Day 10, the victim and perpetrator IMPs were administered simultaneously.
(§2) On the evening before each dose, participants were provided with a light snack and were required to fast from all food and drink (except water) for a minimum of 10 hours until the following morning. All study interventions were administered in the fed state, following completion of a standard breakfast (with dosing planned to occur 30 minutes after the start of the breakfast).
(§3) The PK parameters underwent a natural logarithmic transformation and were analyzed using a mixed effect modelling technique. Adjusted geometric mean ratios and 90% confidence intervals (CIs) of the ratios were obtained for each comparison. The ratio was defined as test/reference. In addition, the intraparticipant variability were also presented. […] No formal interim analyses were performed for this study.

The nature of series [4]: clinical. How it is done: as §1, §2, §3
Series [5] is described as follows: Example 3 Part 2 (Regimen B) dabigatran etexilate + belumosudil plasma PK. The series is classed as in vivo, human. As for the experimental part:
The ratio was defined as test/reference. In addition, the intraparticipant variability were also presented. […] No formal interim analyses were performed for this study.

The target of series [6] is ROCK2 (Homo sapiens, UniProt O75116). Briefly: ROCK2 inhibition. The series is classed as biochemical.
Chain of ROCK2 (O75116 whole entry): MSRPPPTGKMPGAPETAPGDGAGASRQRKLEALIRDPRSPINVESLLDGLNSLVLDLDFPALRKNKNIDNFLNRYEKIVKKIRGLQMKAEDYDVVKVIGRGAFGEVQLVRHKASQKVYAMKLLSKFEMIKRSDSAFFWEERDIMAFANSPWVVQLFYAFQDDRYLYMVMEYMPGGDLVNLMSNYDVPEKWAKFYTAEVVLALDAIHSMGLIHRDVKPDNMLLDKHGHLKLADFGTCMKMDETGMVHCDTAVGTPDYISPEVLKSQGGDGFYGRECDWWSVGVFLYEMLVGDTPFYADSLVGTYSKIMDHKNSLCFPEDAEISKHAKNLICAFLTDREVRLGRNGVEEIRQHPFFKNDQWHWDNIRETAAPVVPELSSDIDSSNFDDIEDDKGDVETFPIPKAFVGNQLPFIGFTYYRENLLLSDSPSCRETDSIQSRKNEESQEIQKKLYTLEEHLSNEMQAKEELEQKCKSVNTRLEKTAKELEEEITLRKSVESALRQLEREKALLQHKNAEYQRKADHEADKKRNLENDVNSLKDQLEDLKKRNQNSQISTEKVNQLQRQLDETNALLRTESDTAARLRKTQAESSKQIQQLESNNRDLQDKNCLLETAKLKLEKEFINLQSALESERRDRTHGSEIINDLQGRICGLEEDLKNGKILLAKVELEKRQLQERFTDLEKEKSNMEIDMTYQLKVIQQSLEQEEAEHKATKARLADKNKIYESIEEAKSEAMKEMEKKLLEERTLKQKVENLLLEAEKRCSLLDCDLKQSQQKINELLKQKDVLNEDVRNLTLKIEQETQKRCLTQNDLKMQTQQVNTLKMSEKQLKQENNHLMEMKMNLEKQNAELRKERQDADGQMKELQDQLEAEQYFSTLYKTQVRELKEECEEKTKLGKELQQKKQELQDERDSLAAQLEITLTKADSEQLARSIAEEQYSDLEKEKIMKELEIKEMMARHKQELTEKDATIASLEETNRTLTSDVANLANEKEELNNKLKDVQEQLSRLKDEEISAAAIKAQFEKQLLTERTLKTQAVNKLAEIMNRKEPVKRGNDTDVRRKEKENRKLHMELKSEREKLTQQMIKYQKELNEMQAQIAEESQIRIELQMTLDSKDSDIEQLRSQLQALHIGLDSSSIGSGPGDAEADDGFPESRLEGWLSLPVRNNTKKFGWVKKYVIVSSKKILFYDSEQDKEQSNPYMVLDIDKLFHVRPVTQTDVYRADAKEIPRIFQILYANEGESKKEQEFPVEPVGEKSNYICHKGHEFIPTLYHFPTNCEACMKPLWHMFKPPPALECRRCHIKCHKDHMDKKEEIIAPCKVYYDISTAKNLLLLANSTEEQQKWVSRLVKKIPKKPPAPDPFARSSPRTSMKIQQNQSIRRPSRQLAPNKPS
Where [7] appears, read: Raltegravir + belumosudil (Day 7), belumosudil 200 mg QD.
Where [8] appears, read: Raltegravir alone (Day 1), 400 mg single dose.
Setting [9] is: Regimen A, raltegravir 400 mg single dose + belumosudil 200 mg QD (Day 7).
Setting [10] is: Regimen A, raltegravir 400 mg single dose alone (Day 1).
The mark [11] stands for this setting: raltegravir + belumosudil vs raltegravir alone.
Setting [12] is: Dabigatran etexilate + belumosudil (Day 9), belumosudil 200 mg QD.
[13] abbreviates: Dabigatran etexilate alone (Day 1), 75 mg single dose.
Where [14] appears, read: Regimen B, dabigatran etexilate 75 mg single dose + belumosudil 200 mg QD (Day 9).
[15] abbreviates: dabigatran etexilate + belumosudil vs alone.
Setting [16] is: dosed with belumosudil compared to dosing alone.

Structures can show the parent of a compound that is named as a salt. Marks after values point to notes of the source that are not given here. Where only a bound is given, the exact number is not on record here.

On to `CC(C)NC(=O)COc1cccc(-c2nc(Nc3ccc4[nH]ncc4c3)c3ccccc3n2)c1` [Belumosudil mesylate, 2-{3-[4-(1H-indazol-5-ylamino)-2-quinazolinyl]phenoxy}-N-(propan-2-yl) acetamide methanesulfonate (1:1)], for which the “solubility in DMF” value in series [1] (DMF) is given as “slightly soluble”. Further, the “solubility in DMSO” value in series [1] (DMSO) is listed as “soluble”. Further, in series [1] (methanol), the solubility in methanol entry is given as “slightly soluble”. Besides, the solubility in water result in series [1] (water) was “practically insoluble”.
Regarding `NC(=O)COc1cccc(-c2nc(Nc3ccc4[nH]ncc4c3)c3ccccc3n2)c1` [KD025m1], in series [2], the “exposure of metabolite relative to the parent” value is given as less than 5%. Besides, the “median Tmax” value in series [3] lay within 1.5 to 2 h. Further, in series [3] (200 mg), the “AUC(0-last), geometric mean” value is 32.0 ng·h/mL; the “Cmax, geometric mean” value worked out at 17.1 ng/mL; the “Tmax, median” value is 1.500 h. Moreover, in series [4] (human, in vivo), the “geometric mean T1/2” value lay in the range of 1.6 to 2 h and the “median Tmax” value was 1.5 to 3 h. Further, in series [4] (human, in vivo, 200 mg), the “AUC(0-last), geometric mean” value is 47.6 ng·h/mL; the “AUC(0-tau), geometric mean” value worked out at 96.6 ng·h/mL; the “Cmax, geometric mean” value was 21.4 ng/mL; the “T1/2, geometric mean” value amounted to 1.621 h. The “Tmax, median” value in series [4] (human, in vivo, 200 mg) was 2.00 h. Further, in series [5] (human, in vivo), the “T1/2, individual participant value(s)” value is recorded as 1.878^b h and the “median Tmax” value was 1.5 to 2 h. In series [5] (human, in vivo, 200 mg), the “AUC(0-last), geometric mean” value turned out to be 35.3 ng·h/mL; the “Cmax, geometric mean” value is recorded as 19.5 ng/mL; the “Tmax, median” value came out at 1.750 h. Further, the “ROCK2 activity of metabolite” value in series [6] is “ROCK2 active”.
`O=C(O)COc1cccc(-c2nc(Nc3ccc4[nH]ncc4c3)c3ccccc3n2)c1` [KD025m2]: the “increase of exposures (Cmax and AUC) following multiple dosing” value in series [3] is recorded as 1.21-1.57 fold; in series [4] (human, in vivo), 1.30-1.49 fold; in series [5] (human, in vivo), 1.27-1.42 fold. Besides, the “median Tmax” value was in the range of 1.5 to 2 h in series [3]; 1.5 to 3 h in series [4] (human, in vivo); 1.5 to 2 h in series [5] (human, in vivo). For the same compound, the “AUC(0-last), geometric mean” value in series [3] (200 mg) was determined as 557 ng·h/mL; in series [4] (human, in vivo, 200 mg), 879 ng·h/mL; in series [5] (human, in vivo, 200 mg), 692 ng·h/mL. Moreover, the “AUC(0-tau), geometric mean” value is 598 ng·h/mL in series [3] (200 mg); 961 ng·h/mL in series [4] (human, in vivo, 200 mg); 746 ng·h/mL in series [5] (human, in vivo, 200 mg). Also, the “Cmax, geometric mean” value in series [3] (200 mg) was 215 ng/mL; in series [4] (human, in vivo, 200 mg), 278 ng/mL; in series [5] (human, in vivo, 200 mg), 184 ng/mL. Also, the “Tmax, median” value in series [3] (200 mg) is 2.000 h; in series [4] (human, in vivo, 200 mg), 2.00 h; in series [5] (human, in vivo, 200 mg), 2.000 h. Also, the “ROCK2 activity of metabolite” value in series [6] is “ROCK2 inactive”.
On to `Cc1nnc(C(=O)NC(C)(C)c2nc(C(=O)NCc3ccc(F)cc3)c(O[C@@H]3O[C@H](C(=O)O)[C@@H](O)[C@H](O)[C@H]3O)c(=O)n2C)o1` [raltegravir glucuronide], for which the “peak and overall exposure levels when raltegravir was dosed with belumosudil compared to dosing alone” value in series [4] (Part 1) is “notable decrease”. Moreover, the “MPR Cmax (metabolite to parent ratio)” value in series [4] (Raltegravir + belumosudil (Day 7)) amounted to 0.299. In series [4] (setting [7]), the “AUC(0-24), geometric mean” value came to 1090 ng·h/mL; the “AUC(0-inf), geometric mean” value is 1170 ng·h/mL; the “AUC(0-last), geometric mean” value was found to be 859 ng·h/mL; the “Cmax, geometric mean” value was determined as 207 ng/mL. In series [4] (setting [7]), the “T1/2, geometric mean” value is listed as “approximately 3.9 h” and the “Tmax, median” value came out at 4.000 h. Also, the “T1/2, geometric mean” value in series [4] (Raltegravir + belumosudil (Day 7), belumosudil 200 mg QD, listed as Raltegravir glucuronide) amounted to 3.919 h. For the same compound, the “MPR Cmax (metabolite to parent ratio)” value in series [4] (Raltegravir alone (Day 1)) is 0.506. In series [4] (setting [8]), the “AUC(0-24), geometric mean” value was determined as 1710 ng·h/mL; the “AUC(0-inf), geometric mean” value amounted to 1290 ng·h/mL; the “AUC(0-last), geometric mean” value worked out at 1420 ng·h/mL; the “Cmax, geometric mean” value was determined as 359 ng/mL. Also, in series [4] (setting [8]), the “T1/2, geometric mean” value was approximately 1.5 h and the “Tmax, median” value stood at 4.000 h. Further, in series [4] (Raltegravir alone (Day 1), 400 mg single dose, listed as Raltegravir glucuronide), the “T1/2, geometric mean” value was 1.541 h. Moreover, in series [4] (setting [9]), the “AUC(0-last), adj geo mean” value worked out at 859 ng·h/mL and the “Cmax, adj geo mean” value turned out to be 207 ng/mL. Moreover, in series [4] (setting [10]), the “AUC(0-last), adj geo mean” value came out at 1420 ng·h/mL and the “Cmax, adj geo mean” value is listed as 359 ng/mL. For the same compound, in series [4] (setting [11]), the “AUC(0-last), ratio of adj geo means (test/reference)” value was 60.38% and the “Cmax, ratio of adj geo means (test/reference)” value stood at 57.58%.
In the case of `Cc1nnc(C(=O)NC(C)(C)c2nc(C(=O)NCc3ccc(F)cc3)c(O)c(=O)n2C)o1` [raltegravir, reference compound], the “Tmax, median” value in series [4] (setting [7]) is given as 3.000 h. For the same compound, in series [4] (setting [8]), the “Tmax, median” value is given as 3.000 h. In series [4] (male, human, in vivo, 400 mg), the AUC(0-inf) – broadly, the area under the concentration-time curve extrapolated to infinity – was 1510 ng·h/mL; the “Cmax, adj geo mean” value turned out to be 512 ng/mL; the “Cmax, geometric mean” value is 520 ng/mL; the “T1/2, geometric mean” value stood at 1.434 h. Besides, in series [4] (male, human, in vivo, 400 mg), the half-life (in general, the time in which the quantity being followed falls by half) is approximately 84 min. Also, the AUC(0-t) in series [4] (male, human, in vivo, 400 mg, AUC(0-24), geometric mean) stood at 1970 ng·h/mL. Also, the AUC(0-t) in series [4] (male, human, in vivo, 400 mg, AUC(0-last), adj geo mean) was 1570 ng·h/mL. In addition, in series [4] (male, human, in vivo, 400 mg, AUC(0-last), geometric mean), the AUC(0-t) turned out to be 1640 ng·h/mL.
Take `CC(C)c1nc(N(C)S(C)(=O)=O)nc(-c2ccc(F)cc2)c1/C=C/[C@@H](O)C[C@@H](O)CC(=O)O` [rosuvastatin, reference compound]: in series [3] (male), the “increase of overall exposure level” value came out at 4.62 fold and the “increase of peak exposure level” value worked out at 3.59 fold. Besides, in series [3] (male, 10 mg), the area under the curve AUC(0-inf) is 25.4 ng·h/mL; the “AUC(0-last), geometric mean” value is 13.6 ng·h/mL; the AUC(0-t) amounted to 13.6 ng·h/mL; the “Cmax, adj geo mean” value was 2.96 ng/mL. The “Cmax, geometric mean” value in series [3] (male, 10 mg) is 2.96 ng/mL.
Regarding `[H]/N=C(/N)c1ccc(NCc2nc3cc(C(=O)N(CCC(=O)O)c4ccccn4)ccc3n2C)cc1` [unconjugated dabigatran, dabigatran, reference compound], in series [5] (setting [12]), the “AUC(0-last), geometric mean” value is 682 ng·h/mL; the “Cmax, geometric mean” value worked out at 99.5 ng/mL; the “T1/2, geometric mean” value stood at 8.293 h; the “Tmax, median” value is on record as 2.000 h. Further, in series [5] (setting [13]), the “AUC(0-last), geometric mean” value turned out to be 317 ng·h/mL; the “Cmax, geometric mean” value is given as 42.1 ng/mL; the “T1/2, geometric mean” value worked out at 8.128 h; the “Tmax, median” value worked out at 3.000 h. Also, in series [5] (setting [14]), the “AUC(0-last), adj geo mean” value stood at 682 ng·h/mL and the “Cmax, adj geo mean” value stood at 99.5 ng/mL. For the same compound, the “Cmax, adj geo mean” value in series [5] (Regimen B, dabigatran etexilate 75 mg single dose alone (Day 1)) is 42.1 ng/mL. The increase of exposure in series [5] (coadministration of belumosudil) stood at 2 fold. In series [5] (setting [15]), the “AUC(0-inf), ratio of adj geo means (test/reference)” value is recorded as 206.47%; the “AUC(0-last), ratio of adj geo means (test/reference)” value was found to be 215.41%; the “Cmax, ratio of adj geo means (test/reference)” value amounted to 236.06%. For the same compound, in series [5] (setting [16]), the “increase of overall exposure level” value came out at 2.06 fold and the “increase of peak exposure level” value turned out to be 2.36 fold. For the same compound, the AUC(0-inf) in series [5] (male, human, plasma, oral, 75 mg, Dabigatran etexilate alone (Day 1), 75 mg single dose, read-out: AUC(0-inf), geometric mean) is 371 ng·h/mL. In series [5] (male, human, plasma, oral, 75 mg, Regimen B, dabigatran etexilate 75 mg single dose alone (Day 1), read-out: AUC(0-inf), adj geo mean), the area under the curve AUC(0-inf) was determined as 398 ng·h/mL. In series [5] (male, human, plasma, oral, Dabigatran etexilate + belumosudil (Day 9), belumosudil 200 mg QD, read-out: AUC(0-inf), geometric mean), the AUC(0-inf) worked out at 801 ng·h/mL. Further, the AUC(0-inf) in series [5] (male, human, plasma, oral, Regimen B, dabigatran etexilate 75 mg single dose + belumosudil 200 mg QD (Day 9), read-out: AUC(0-inf), adj geo mean) was determined as 822 ng·h/mL. Besides, the AUC(0-t) in series [5] (male, human, plasma, oral, Regimen B, dabigatran etexilate 75 mg single dose alone (Day 1), read-out: AUC(0-last), adj geo mean) amounted to 317 ng·h/mL.
